The species entered for the test is Cavia porcellus. The test can be described thus: Tested for inhibition of field-stimulation-induced contraction in the isolated guinea pig ileum. Format: functional. Particulars: read-out: ID50 (the source's name).

Drawing on ChEMBL document CHEMBL1127044, “Preparation and pharmacological evaluation of enantiomers of certain nonoxygenated aporphines: (+)- and (-)-aporphine and (+)- and (-)-10-methylaporphine” (1993), this text covers IC50 for three compounds.

pIC50: −log10 of the molar value.

For the compound `Cc1ccc2c(c1)-c1cccc3c1[C@@H](C2)N(C)CC3`, the pIC50 was 5.17.
In the case of `Cc1ccc2c(c1)-c1cccc3c1[C@H](C2)N(C)CC3`, the pIC50 was 5.92.
The figure for `CCCN(CCC)C1CCc2cccc(O)c2C1` (racemic) [8-OH-DPAT] is 7.22.
